Test results published in patent publication US9497963B2, “Methods and compositions for control of gypsy moth, Lymantria dispar” (Simon Fraser University, priority 2008, dated 2016).

Experiments:
Parameters in all cases: species or system Lymantria dispar
male gypsy moth antenna = assay: Coupled gas chromatographic-electroantennographic detection (GC-EAD); details: EAD peak size and shape (sharp/broad)
Method in brief: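 GC column effluent split between flame ionization detector and an excised male moth antenna held between saline-filled glass capillary electrodes, tip removed, in a warm air stream. Antennal potentials assigned to compounds by matching retention times with FID peaks.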

[1] = test system: response of L. dispar antennae to (+)-disparlure; assay: Competitive electroantennogram (EAG) screen, inhibition of response to (+)-disparlure (Example 4); details: Lymantria dispar, means ± S.E.; for inhibition at 0.001 mg: dose 1 μg on cartridge; for inhibition at 0.01 mg: dose 10 μg on cartridge; for inhibition at 0.1 mg: dose 100 μg on cartridge
Description: In this assay, libraries and individual compounds are tested for their ability to inhibit the antennal response to the sex attractant pheromone of the gypsy moth, (7R,8S) 2-methyl-7,8-epoxyoctadecane, also known as (+)-disparlure. The controls consisted of a puff of clean air (negative) or of air passed over a cartridge impregnated with (+)-disparlure (100 ng) (positive). The treatments consisted of 100 ng of (+)-disparlure in combination with a compound or library at 1, 10 or 100 μg, on a cartridge over which the air puff was passed. The small arrows above the trace denote the times where the air was puffed over the antenna.
For some compounds, such as the para Compounds 2c{n}, 2c{n,n} and libraries 3c{n,1-5}, EAG competitive assays were performed to investigate whether the diethers inhibit the response of L. dispar antennae to the main component of the sex attractant pheromone cis-(7R,8S)-epoxy-2-methyloctadecane [(+)-disparlure] (FIG. 4). For EAGs a male moth antenna was mounted and placed in front of a stimulus-delivery glass tubing (160×5 mm ID) with a side orifice (2 mm diam) near (2 cm) the distal opening. The tubing was connected to one port of an apparatus (Stimulus Controller CS-05, Syntech Research and Equipment, NL-1200BM Hilversum, The Netherlands) that generated a constant stream of clean air (300 ml/min). The second port of the apparatus was connected to a Pasteur pipette inserted through the side orifice of the stimulus-delivery tubing. The test stimulus was applied to a disc of Whatman #1 filter paper inside the Pasteur pipette and was discharged through a 0.3-sec pulse of air (600 ml/min) Receptor potentials of the antennae in response to test stimuli were recorded with a Syntech IDAC probe, amplifier and interfaced board, and were analyzed with EAG Syntech Software Version 2.4 (1996) Inhibition (%) was calculated as: % inhibition=(Dd−Ds)/Dd×100 (eq. 1)
Where Dd is the depolarization observed with pure disparlure (corrected for clean air background) and Ds is the depolarization with disparlure+sample. See FIG. 4 for a representative EAG inhibition assay trace.

[2] = test system: male gypsy moth antenna response to pheromone (+)-1; assay: EAG short-term (STI) and long-term (LTI) inhibition of pheromone signaling (Example 5); details: for inhibition at 0.001 mg / inhibition at 0.01 mg / inhibition at 0.1 mg / inhibition at 100 µg, 0.1 mg: Lymantria dispar, mean ± S.E.; for inhibition at 0.001 mg: mixed plume (+)-1 100 ng + compound 1 μg; for inhibition at 0.001 mg / inhibition at 0.01 mg / inhibition at 0.1 mg: negative = enhancement, read-out: Activity (%): short-term inhibition (STI); for inhibition at 0.01 mg: mixed plume (+)-1 100 ng + compound 10 μg; for inhibition at 0.1 mg: mixed plume (+)-1 100 ng + compound 100 μg (puff v); for inhibition at 100 µg, 0.1 mg: pure (+)-1 100 ng plume following mixed plume with 100 μg compound, read-out: Activity (%): long-term inhibition (LTI)
Description: The puffs are numbered i-vi and were: i=air, ii=pure pheromone (+)-disparlure, (+)-1, (100 ng), iii-v=disparlure mixed with the test compound, the latter at three different doses, vi=pure (+)-1. Depolarizations from the resting potential are labeled d; hyperpolarizations seen during the recovery phase after a puff are labeled r. Subscripts refer to the puff number. FIG. 5A. Typical trace for compound 3c{2,3}. FIG. 5B. Typical trace for compound 3a{4,4}.
For other compounds, EAG traces were recorded as follows: a fully dislodged antenna from a male gypsy moth was mounted on the end of a reference electrode (a glass capillary with a silver wire, filled with buffered saline: 5 mM NaH2PO4, 10 mM Na2SO4, 4.5 mM KHCO3, 18 mM MgCl2, 4 mM CaCl2, 6 mM KCl, the pH is adjusted to 6.8 using 5 mM Na2HPO4). The tip of the antenna was severed with microscissors and placed in the recording electrode, which was mounted on a micromanipulator. A constant stream of air, that had been purified (charcoal filter), was blown over the antenna at a rate of 300 mL/min. Test samples were delivered through a stimulus delivery tube with a side opening 2 cm from the distal opening. The proximal end of the delivery tube was connected to a controlled stimulus delivery apparatus (Stimulus controller CS-05 Syntech Research and Equipment, NL 1200BM, Hilversum, The Netherlands). The distal end of the delivery tube pointed at the antenna (1 cm from the antenna). The side opening was connected to a cartridge fashioned from a Pasteur pipette which contained a small filter paper (Whatman No. 1) with the stimulus. These pipette cartridges could be prepared a few days in advance and stored at −80° C. wrapped in Al foil and in sealable plastic bags. Sample cartridges were mounted once they had reached room temperature. The stimulus delivery apparatus delivered a second stream of air (a puff) through the Pasteur pipette at a velocity of 600 mL/min, at a specified point in time, for 0.3 s. Receptor potentials of the antennae in response to test stimuli were recorded with a Syntech IDAC probe, amplifier and interfaced board, and were analyzed with EAG Syntech Software Version 2.4 (1996). See FIG. 4 for a representative EAG trace. The EAG traces were evaluated as follows (see FIG. 5).
The net depolarizations, d(net) (in mV), of puffs ii-vi,d(sample), (corrected for the depolarization with clean air, d(air)) d(net)=d(sample)−d(air) (Eq. 1)
The percentage short-term inhibition for each compound (STI(compound)) of puffs iii-v, relative to the first pure pheromone puff (ii) STI(compound)=100×(d(net)(ii)−d(net)(compound))/d(net)(ii) (Eq. 2)
c) the percentage long-term inhibition for each compound (LTI(compound)) of the pure pheromone puff that followed the last mixed puff (vi) relative to the first pure pheromone puff (ii) LTI(compound)=100×(d(net)(ii)−d(net)(vi))/d(net)(ii) (Eq. 3)
The compounds we tested gave weak or no olfactory responses by themselves in electroantennogram (EAG) experiments. The EAG trace reflects the change in the potential across the antenna when an air puff with an odorant is passed over the antenna. To understand the agonistic or antagonistic effect of the compounds on pheromone responses by male moth antennae, four types of EAG experiment were conducted. First, the response of the antenna elicited by a stimulus of pure (+)-1 was compared to the responses elicited by blends of (+)-1 with the test compound (FIG. 5). […] This effect was termed short-term inhibition (STI). […] Second, the time decay and dose responses for LTI activities were studied. Third, the strongest inhibitors were tested for their ability to cause LTI by themselves.
This experiment explored the agonistic or antagonistic activity of the synthetic aromatic compounds (Scheme 1 and eugenol and alkyl eugenols) with the gypsy moth pheromone (+)-1. […]

L. dispar PBP 1 = assay: Pheromone-binding protein (PBP) ligand binding assay, PBP1
Description: (§1) A. The protein and ligand are incubated in buffer overnight. B. For half of the incubation mixture, the free ligand (L) is separated from the protein-bound ligand (P.L) by size-exclusion chromatography on P2 Gel (BioRad, exclusion limit 2000 Da). The protein elutes from the small column bed, with its ligand bound (see Examples and […] et al. 2000; Staddon and Everton 1980), while the free ligand is retained on the column ([…] et al. 2000). C. […] The extract from the filtrate (B) contains the protein-bound ligand and the extract from the incubation mixture (A) contains all the ligand (bound and free) present in the aqueous phase. The extracts are analyzed by GC-MS, to obtain values for total ligand in solution (L+P.L) and for protein-bound ligand (P.L). These can then be used to calculate % bound (Table 3). These assays were performed as described in FIG. 3 and as follows: L. dispar PBP 1 or PBP 2 was incubated with the test compound or mini-library. The PBP and the ligand(s) (L) were left to equilibrate (eq 2) overnight. The non-bound ligand was then separated from the protein-bound material (PBP.L) by size-exclusion chromatography. By determining the total ligand in solution at equilibrium (eq. 3) and the protein-bound ligand, it is possible to estimate the percentage of ligand bound to the protein at equilibrium (eq. 4). […] This binding assay has been validated extensively in previous studies ([…] et al. 2000). The components of each mini-library separated cleanly by GC, so it was possible to monitor binding of individual components. PBP+L⇄PBP·L (eq. 2) [L]tot=[L]+[PBP·L] (eq. 3) % bound=100×[PBP·L]/[L]tot (eq. 4) Results: The members of each mini-library separated cleanly by GC, therefore it was possible to monitor binding of individual members to PBP1 or PBP2, the two known PBPs in the gypsy moth, by extraction from the aqueous incubation mixture, followed by GC analysis of the extract (FIG. 3).

L. dispar PBP 2 = assay: Pheromone-binding protein (PBP) ligand binding assay, PBP2
Description: as §1

[3] = member tested within library 3c{2, 1-5}
[4] = member tested within library 3c{5, 1-5}
[5] = member tested within library 3c{1, 1-5}
[6] = member tested within library 3c{4, 1-5}
[7] = tested as single compound, means ± S.E., 4 replicates

Structure (SMILES) | GC-EAD activity (male gypsy moth antenna) | inhibition at 0.001 mg [2] | inhibition at 0.01 mg [2] | inhibition at 0.1 mg [2] | inhibition at 100 µg, 0.1 mg [2] | PBP1 (% bound) (L. dispar PBP 1; [6]) | also measured
CC(C)CCOc1ccc(O)cc1 [2c{5}, 4-(3-Methyl-butyloxy) phenol] | None | 47 ± 14% | 77 ± 7% | 49 ± 7% | 2 ± 4% | – | inhibition at 0.001 mg [1]: 38 ± 17%; inhibition at 0.01 mg [1]: 38 ± 27%; inhibition at 0.1 mg [1]: 19 ± 20%; short-term effect on antennal pheromone response (in words) [2]: antagonistic
CCOc1ccc(OCCC(C)C)cc1 [3c{2,5}, 1-ethoxy-4-(3-methyl-butyloxy) benzene] | None | – | – | – | – | – | PBP1 (% bound) (L. dispar PBP 1; [3]): 4 ± 0.2%; PBP1 (% bound) (L. dispar PBP 1; [4]): 2 ± 0.1%; PBP2 (% bound) (L. dispar PBP 2; [3]): 14 ± 0.2%; PBP2 (% bound) (L. dispar PBP 2; [4]): 3 ± 0.03%
CCCOc1ccc(O)cc1 [2c{3}, 4-Propoxy phenol] | None | 7 ± 31% | 29 ± 34% | 38 ± 12% | -8 ± 7% | – | inhibition at 0.001 mg [1]: 17 ± 14%; inhibition at 0.01 mg [1]: 43 ± 14%; inhibition at 0.1 mg [1]: 35 ± 12%
COc1ccc(OCCC(C)C)cc1 [3c{1,5}, 1-methoxy-4-(3-methyl-butyloxy) benzene] | None | – | – | – | – | – | PBP1 (% bound) (L. dispar PBP 1; [5]): 1 ± 0.7%; PBP1 (% bound) (L. dispar PBP 1; [4]): 7 ± 0.1%; PBP2 (% bound) (L. dispar PBP 2; [5]): 2 ± 2.5%; PBP2 (% bound) (L. dispar PBP 2; [4]): 5 ± 0.1%
CCCOc1ccc(OCCC(C)C)cc1 [3c{3,5}, 1-(3-methyl-butyloxy)-4-propoxy benzene] | None | 10 ± 11% | -120 ± 20% | -145 ± 35% | 4 ± 7% | – | PBP1 (% bound) (L. dispar PBP 1; member tested within library 3c{3, 1-5}): 1 ± 0.2%; PBP1 (% bound) (L. dispar PBP 1; [4]): 3 ± 0.1%; PBP2 (% bound) (L. dispar PBP 2; [4]): 2 ± 0.02%
CCOc1ccc(OC)cc1 [3c{1,2}, 1-ethoxy-4-methoxy benzene] | ++ sharp | – | – | – | – | – | PBP1 (% bound) (L. dispar PBP 1; [5]): 15 ± 0.4%; PBP1 (% bound) (L. dispar PBP 1; [3]): 30 ± 0.2%; PBP2 (% bound) (L. dispar PBP 2; [5]): 12 ± 1.5%; PBP2 (% bound) (L. dispar PBP 2; [3]): 40 ± 0.1%
CCCCOc1ccc(OC)cc1 [3c{1,4}, 1-butoxy-4-methoxy benzene] | None | – | – | – | – | 20 ± 0.4% | –
COc1ccc(O)cc1 [2c{1}, 4-Methoxy phenol] | None | 8 ± 12% | 21 ± 20% | -16 ± 25% | 10 ± 7% | – | inhibition at 0.001 mg [1]: 10 ± 5%; inhibition at 0.01 mg [1]: 55 ± 11%; inhibition at 0.1 mg [1]: 43 ± 12%
CCCCOc1ccc(OCC)cc1 [3c{2,4}, 1-butoxy-4-ethoxy benzene] | None | – | – | – | – | 10 ± 0.4% | –
CCCCOc1ccc(OCCC)cc1 [3c{3,4}, 1-butoxy-4-propoxy benzene] | None | -11 ± 18% | -90 ± 23% | -180 ± 26% | 22 ± 12% | 4 ± 0.3% | –
CCCCOc1ccc(OCCCC)cc1 [3c{4,4}, 1,4-Dibutoxy benzene] | – | -107 ± 41% | -90 ± 57% | – | 7 ± 14% | – | PBP1 (% bound) (L. dispar PBP 1; [7]): 4 ± 0.1%; PBP2 (% bound) (L. dispar PBP 2; [7]): 8 ± 0.3%
CCCCOc1ccc(OCCC(C)C)cc1 [3c{4,5}, 1-butoxy-4-(3-methyl-butyloxy) benzene] | None | – | – | – | – | 4 ± 0.4% | –
